From doi:10.1101/2021.12.13.472388v3 (biorxiv, 2022)

Legend:
BRD4-BDI = BRD4-BDI (Homo sapiens, UniProt O60885); assay: HTRF peptide displacement; assay type: binding; conditions: 6 h, room temperature
CECR2 = CECR2 (Homo sapiens, UniProt Q9BXF3); assay: BROMOscan competition binding; conditions: single dose 1 μM; unreliable (may be per cent of control, direction unclear)
TRIM33 = molecular target: T1, TRIM33 (Homo sapiens, UniProt Q9UPN9); assay: BROMOscan competition binding; conditions: single dose 1 μM; unreliable (may be per cent of control, direction unclear)
T1 sequence (Q9UPN9 882-1087 limits assumed): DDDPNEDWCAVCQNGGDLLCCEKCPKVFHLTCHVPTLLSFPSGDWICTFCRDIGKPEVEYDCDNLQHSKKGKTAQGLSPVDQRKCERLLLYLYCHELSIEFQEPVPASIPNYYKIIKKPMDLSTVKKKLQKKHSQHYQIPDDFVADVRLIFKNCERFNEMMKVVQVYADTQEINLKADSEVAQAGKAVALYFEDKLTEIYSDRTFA

NB4 = assay: cells; design: species or system MOLM-14, CCRF-CEM, K-562; conditions: Homo sapiens, NB-4, 72 h, read-out: Cells viability EC50 NB4 (µM)
K-562 = assay: cells; design: species or system MOLM-14, CCRF-CEM, NB4; conditions: Homo sapiens, K562, 72 h, read-out: Cells viability EC50 K-562 (µM)

IC50 (BRD4-BDI) | Structure (SMILES) | further results
7.4 ± 0.5 µM | Cc1cc(F)ccc1NS(=O)(=O)c1cc(-c2c(C)noc2C)ccc1C [compound 4] | –
1.1 ± 0.1 µM | O=C1c2ccc(Oc3cccc(Oc4ccc5c(c4)C(=O)N(c4ccc(O)cc4)C5=O)c3)cc2C(=O)N1c1ccc(O)cc1 [compound 7] | –
11 ± 0.9 µM | Cc1ccc(-c2c(C)noc2C)cc1S(=O)(=O)Nc1cccc(C)c1C [compound 2] | –
4.3 ± 0.2 µM | COc1cc(C(=O)C(=Cc2ccncc2)c2nc3ccccc3o2)cc(OC)c1OC [compound 5] | –
9.3 ± 0.8 µM | CCc1cccc(C)c1NS(=O)(=O)c1cc(-c2c(C)noc2C)ccc1C [compound 3] | –
4 ± 0.5 µM | CC(=O)N1CCc2c(sc3nc(SCC(=O)Nc4cc(Cl)ccc4C)n(Cc4ccco4)c(=O)c23)C1 [compound 1] | –
1.3 µM | CC(=O)N1CCc2c(sc3nc(SCC(=O)Nc4cccnc4C)n(Cc4ccco4)c(=O)c23)C1 [compound 34, 2-((7-Acetyl-3-(furan-2-ylmethyl)-4-oxo-3,4,5,6,7,8-hexahydropyrido[4’,3’:4,5]thieno[2,3-d]pyrimidin-2-yl)thio)-N-(2-methylpyridin-3-yl)acetamide] | % inhibition at 1 μM (CECR2): 54%; % inhibition at 1 μM (TRIM33): 52%; EC50 (NB4): > 25 µM; EC50 (K-562): > 25 µM
